# Measured values published in publication PMC11857742, “Antiaging Potential of Lipophilic Extracts of Caulerpa prolifera” (Marine Drugs, 2025).
# Molecular target: T1, collagenase
# T1 construct: gene colG; usual product is native clostridial collagenase
# Test: FALGPA hydrolysis, ninhydrin detection at […] nm
# Type: biochemical
# Details: pH 7.4, 37 °C, TES, calcium chloride; chelates the metal cofactor
smiles,measurement,value
O=C(O)CN(CCN(CC(=O)O)CC(=O)O)CC(=O)O [EDTA],Collagenase / IC50,51.2 ± 0.12 µg/mL
